Tests used:
[1] = Fraction unbound brain (fu,br), brain homogenate equilibrium dialysis; conditions: 1 µM
Procedure: The degree of brain binding was assessed by equilibrium dialysis. Brain homogenate (10%) was spiked with test compound at 1 µM in triplicate. […] The plate was then placed in a shaker/incubator to equilibrate for 18 hrs at 37°C. […] After the addition of 50 µl of buffer to the brain homogenate samples, 150 µl of acetonitrile was added to each sample. Finally, 50 µl of water was added to all buffer and brain homogenate samples. The plates were centrifuged and the supernatant analyzed by LC-MS/MS.

[2] = Fraction unbound brain (fu,br), brain slice method; conditions: 1 µM
Procedure: Rats (male Sprague-Dawley) were decapitated under isoflurane anesthesia and the brains were removed carefully and immersed in ice-cold oxygenated physiological buffer at pH7.4. A 6 mm coronal section was cut with a razor and mounted with cyanoacrylate glue onto the tray of the microslicer (DTK-Zero 1 Microslicer, Dosak) after which six to eight 300 µm coronal slices from striatal areas were prepared. […] The compounds were dissolved at 1 µM in the buffer and the solution was incubated with the slice for 5 h.
After 5 h, the brain slices were weighed and homogenized in 9 volumes (w/v) of ECF buffer with a sonicator (SONICS VCX 500 and VCX 130). The slice homogenates in ECF buffer were stored at −20°C prior to analysis. The concentrations of the test compound in the brain slice homogenate and in the ECF buffer was determined by LC-MS/MS.
The unbound volume of distribution Vu,brain, or free fraction fu,brain was calculated according to the following equations: [drawing 1] [drawing 2] where Cslice, CECF and V0 are amount of drug in the slice, the drug concentration in the ECF (representing the drug concentration in the brain ECF, i.e. the free concentration), and the water adhesion of the brain slice. V0 has been estimated using ^14C -inulin in a separate experiment in which brain slices were incubated for 1, 2, and 4 min. V0 was obtained from brain slice uptake – inulin time profile (apparent zero-time intercept).

[3] = tested on: in vitro BBB model (co-culture of bovine brain capillary endothelial cells and rat glial cells); assay: In vitro BBB co-culture model, Cu,br/Cu,pl ratio
Procedure: Figure 1 Schematic diagram of the experimental protocol. After 12 days of coculture in cell culture medium, both compartments of the in vitro BBB model consisting of a coculture of brain capillary endothlial cells and rat primary glial cells were filled with Hepes-buffered Ringer’s solution and the compounds dissolved at 2 µM were added in the luminal compartment (i.e donor). The presence of glial cells in the abluminal compartment was used to reproduce the non specific binding to brain tisssue within the brain prenchyma in vivo. After 1 hour, aliquots were taken from both compartments. In vitro Cu,br/Cu,pl at 1 h were calculated by dividing the concentration in the abluminal compartment (∼Cu,br) by the concentration in the luminal compartment (∼Cu,pl) at 1 h. The experimental data at 1 h were computed using the blue-norna steady-state calculator to generate the in vitro steady-state Cu,br/Cu,pl.
One hour after the addition of compounds dissolved at 2 µM in the luminal (i.e upper) compartment, aliquots were taken from both compartments previously filled with Hepes-buffered Ringer’s solution at the beginning of the experiment. […] The concentrations in both compartments of the in vitro assay after 1 h were computed using […] blue-norna.com to generate the in vitro steady-state Cu,br/Cu,pl.
The method of Dehouck et al. was used with minor modifications (Fig. 1). Bovine brain endothelial cells isolated from capillary fragments were cocultured with primary mixed glial cells from newborn Sprague–Dawley rats. The glial cells were isolated according to the method of Booher and Sensenbrenner and cultured for 3 weeks, plated on the bottom of cell culture clusters containing six wells each. The endothelial cells were seeded onto collagen-coated polycarbonate cell culture inserts (4.7 cm^2) (Corning Incorp. NY, USA), which were placed in the wells containing glial cells. The medium used for the coculture was Dulbecco’s modified Eagle’s medium supplemented with 10% calf serum, 10% horse serum, 2 mmol/L glutamine, 50 mg/L gentamicin and 1 µg/L basic fibroblast growth factor (Sigma). The medium was changed every second day. Experiments were usually initiated after 12 days of co-culture.
To monitor the integrity of the endothelial cell monolayer, the marker molecule [^14C] sucrose was added to the solution at a concentration of 0.05 µCi/ml. At the start of the transport experiments, buffered Ringer’s solution (pH = 7.4) was added to wells with glial cells. Inserts with brain endothelial cells were placed in these wells and drug solutions at 2 µM were added to the donor compartment. The plates were incubated for 1 h in a polymix shaker at 37°C with a low shaking velocity. Aliquots were taken from the donor compartment in the beginning and at the end of the experiments. The receiver compartments were sampled at the end of the experiments.
The amount of radiotracer in the abluminal compartment was measured in a liquid scintillation analyser (Packard Instrument Company, Meriden, USA). […] The concentrations of the test compound in all samples were analysed by MS/MS.
The mean free brain/plasma ratios were calculated from three individual experiments. One hour ratios were calculated by dividing the drug concentration in the receiver compartment by the free drug concentration in the donor compartment after 1 h. The experimental data at one hour (i.e concentration in both compartment at the beginning of the experiment and after 1 h) were computed using the blue-norna® steady-state calculator (www.blue-norna.com) to predict the in vivo steady-state Cu,br/Cu,pl ratios. For further details on this calculation method see file S1.
The in vivo steady-state Cu,br/Cu,pl were predicted from the in vitro experimental data collected after one hour according to the following equation: […]
Cdonor, t and Creceiver, t are the concentration of drug in the donor and receiver chambers at time t.

[4] = brain homogenate (10%), equilibrium dialysis 18 hrs at 37°C
[5] = rat brain slices 300 µm, 5 h incubation
[6] = 2 µM in luminal compartment, abluminal/luminal concentration at 1 h
[7] = steady-state ratio computed from 1 h data with the blue-norna steady-state calculator

| Compound | fubrain (homog.) Mean [1, 4] | fubrain (slice) Mean [2, 5] | In vitro Cu,br/Cu,pl Mean 1 h [3, 6] | In vitro Cu,br/Cu,pl Mean steady-state [3, 7] | fubrain (homog.) Mean ([1]; 18 h) | fubrain (slice) Mean ([2]; male, Sprague-Dawley, rat, 5 h) | In vitro Cu,br/Cu,pl Mean steady-state ([3]; bovine / rat, 2 µM, pH 7.4) | In vitro Cu,br/Cu,pl Mean 1 h ([3]; bovine / rat, 1 h, 2 µM, pH 7.4) |
| --- | --- | --- | --- | --- | --- | --- | --- | --- |
| CN(C)CCC=C1c2ccccc2CCc2ccccc21 [Amitriptyline] | 0.0090 | 0.0060 | 0.07 | 0.59 | – | – | – | – |
| NCC(CC(=O)O)c1ccc(Cl)cc1 (stereo not shown) [Baclofen] | 0.5000 | 0.5800 | 0.05 | 0.06 | – | – | – | – |
| Cn1c(=O)c2c(ncn2C)n(C)c1=O [Caffeine] | 0.5000 | 0.7100 | 0.34 | 0.55 | – | – | – | – |
| NC(=O)N1c2ccccc2C=Cc2ccccc21 [Carbamazepine] | 0.1160 | 0.2000 | 0.25 | 0.31 | – | – | – | – |
| CCCC(C)(COC(N)=O)COC(=O)NC(C)C (stereo not shown) [Carisoprodol] | 0.2020 | 0.5600 | 0.31 | 0.61 | – | – | – | – |
| CN(C)CCCN1c2ccccc2Sc2ccc(Cl)cc21 [Chlorpromazine] | 0.0008 | 0.0032 | 0.06 | 0.69 | – | – | – | – |
| CNCCC(Oc1ccc(C(F)(F)F)cc1)c1ccccc1 (stereo not shown) [Fluoxetine] | 0.0023 | 0.0027 | 0.10 | 0.96 | – | – | – | – |
| NCC1(CC(=O)O)CCCCC1 [Gabapentin] | 0.7820 | 0.2400 | 0.06 | 0.14 | – | – | – | – |
| O=C(CCCN1CCC(O)(c2ccc(Cl)cc2)CC1)c1ccc(F)cc1 [Haloperidol] | 0.0071 | 0.0140 | 0.09 | 0.70 | – | – | – | – |
| OCCOCCN1CCN(C(c2ccccc2)c2ccc(Cl)cc2)CC1 (stereo not shown) [Hydroxyzine] | 0.0100 | 0.0170 | 0.05 | 0.47 | – | – | – | – |
| CC(C)(C)NC(=O)[C@@H]1CN(Cc2cccnc2)CCN1C[C@@H](O)C[C@@H](Cc1ccccc1)C(=O)N[C@H]1c2ccccc2C[C@H]1O [Indinavir] | – | – | 0.04 | 0.10 | – | – | – | – |
| Nc1nnc(-c2cccc(Cl)c2Cl)c(N)n1 [Lamotrigine] | 0.2000 | 0.3600 | 0.27 | 0.43 | – | – | – | – |
| CNCCC=C1c2ccccc2CCc2ccccc21 [Nortriptyline] | 0.0046 | 0.0045 | 0.08 | 0.81 | – | – | – | – |
| O=C1NC(=O)C(c2ccccc2)(c2ccccc2)N1 [Phenytoin] | 0.0800 | 0.1200 | 0.22 | 0.44 | – | – | – | – |
| CCN1CCCC1CNC(=O)c1cc(S(N)(=O)=O)ccc1OC (stereo not shown) [Sulpiride] | 0.6000 | 0.4400 | 0.05 | 0.09 | – | – | – | – |
| CNS(=O)(=O)Cc1ccc2[nH]cc(CCN(C)C)c2c1 [Sumatriptan] | 0.4000 | 0.6100 | 0.05 | 0.05 | – | – | – | – |
| Nc1c2c(nc3ccccc13)CCCC2 [Tacrine] | – | – | – | – | 0.1200 | 0.1200 | 0.58 | 0.23 |
| CSc1ccc2c(c1)N(CCC1CCCCN1C)c1ccccc1S2 (stereo not shown) [Thioridazine] | 0.0010 | 0.0017 | 0.08 | 0.68 | – | – | – | – |

Reference: PMC3849192, “A Simple Method for Assessing Free Brain/Free Plasma Ratios Using an In Vitro Model of the Blood Brain Barrier” (PLoS ONE, 2013)
